# In ChEMBL document CHEMBL2413072, “Synthesis and in vitro anticancer studies of novel C-2 arylidene congeners of lantadenes” (2013):
# Active and inactive are the calls of the source. No cut-off for these calls is given here.
# How the values were obtained:
# Format in all cases: functional
# BT-549 [1] = test: Growth inhibition of human BT549 cells assessed as growth inhibition at 10 uM by sulforhodamine B assay; conditions: read-out: GI
# MDA-MB-231 [2] = test: Growth inhibition of human MDA-MB-231 cells assessed as growth inhibition at 10 uM by sulforhodamine B assay; conditions: read-out: GI
# MCF7 = test: Growth inhibition of human MCF7 cells assessed as growth inhibition at 10 uM by sulforhodamine B assay; conditions: read-out: GI
# DU-145 = test: Growth inhibition of human DU145 cells assessed as growth inhibition at 10 uM by sulforhodamine B assay; conditions: read-out: GI
# UO-31 [3] = test: Growth inhibition of human UO31 cells assessed as growth inhibition at 10 uM by sulforhodamine B assay
# SN12C = test: Growth inhibition of human SN12C cells assessed as growth inhibition at 10 uM by sulforhodamine B assay; conditions: read-out: GI
# ACHN [4] = test: Growth inhibition of human ACHN cells assessed as growth inhibition at 10 uM by sulforhodamine B assay; conditions: read-out: GI
# 786-0 [5] = test: Growth inhibition of human 786-0 cells assessed as growth inhibition at 10 uM by sulforhodamine B assay
# [6] = Growth inhibition of human NCI-ADR-RES cells assessed as growth inhibition at 10 uM by sulforhodamine B assay; conditions: read-out: GI
# CCRF-CEM = test: Growth inhibition of human CCRF-CEM cells assessed as cell growth at 10 uM by sulforhodamine B assay; conditions: read-out: Activity
# OVCAR-5 = test: Growth inhibition of human OVCAR5 cells assessed as growth inhibition at 10 uM by sulforhodamine B assay; conditions: read-out: GI
# OVCAR-3 [7] = test: Growth inhibition of human OVCAR3 cells assessed as growth inhibition at 10 uM by sulforhodamine B assay; conditions: read-out: GI
# IGROV-1 [8] = test: Growth inhibition of human IGROV1 cells assessed as growth inhibition at 10 uM by sulforhodamine B assay; conditions: read-out: GI
# UACC-62 = test: Growth inhibition of human UACC62 cells assessed as growth inhibition at 10 uM by sulforhodamine B assay
# SK-MEL-5 [9] = test: Growth inhibition of human SK-MEL-5 cells assessed as growth inhibition at 10 uM by sulforhodamine B assay; conditions: read-out: GI
# SK-MEL-2 = test: Growth inhibition of human SK-MEL-2 cells assessed as growth inhibition at 10 uM by sulforhodamine B assay; conditions: read-out: GI
# SF-539 [10] = test: Growth inhibition of human SF539 cells assessed as growth inhibition at 10 uM by sulforhodamine B assay; conditions: read-out: GI
# SW-620 = test: Growth inhibition of human SW620 cells assessed as growth inhibition at 10 uM by sulforhodamine B assay; conditions: read-out: GI
# KM12 [11] = test: Growth inhibition of human KM12 cells assessed as growth inhibition at 10 uM by sulforhodamine B assay; conditions: read-out: GI
# HCT-116 = test: Growth inhibition of human HCT116 cells assessed as growth inhibition at 10 uM by sulforhodamine B assay; conditions: read-out: GI
# COLO 205 [12] = test: Growth inhibition of human COLO205 cells assessed as growth inhibition at 10 uM by sulforhodamine B assay; conditions: read-out: GI
# NCI-H460 [13] = test: Growth inhibition of human NCI-H460 cells assessed as growth inhibition at 10 uM by sulforhodamine B assay; conditions: read-out: GI
# [14] = Growth inhibition of human EKVX cells assessed as growth inhibition at 10 uM by sulforhodamine B assay; conditions: read-out: GI
# HL-60(TB) = test: Growth inhibition of human HL-60(TB) cells assessed as growth inhibition at 10 uM by sulforhodamine B assay
# MDA-MB-468 = test: Growth inhibition of human MDA-MB-468 cells assessed as cell growth at 10 uM by sulforhodamine B assay; conditions: read-out: Activity
# T47D = test: Growth inhibition of human T47D cells assessed as cell growth at 10 uM by sulforhodamine B assay; conditions: read-out: Activity
# BT-549 [15] = test: Growth inhibition of human BT549 cells assessed as cell growth at 10 uM by sulforhodamine B assay; conditions: read-out: Activity
# MDA-MB-231 [16] = test: Growth inhibition of human MDA-MB-231 cells assessed as cell growth at 10 uM by sulforhodamine B assay; conditions: read-out: Activity
# UO-31 [17] = test: Growth inhibition of human UO31 cells assessed as cell growth at 10 uM by sulforhodamine B assay; conditions: read-out: Activity
# RXF 393 = test: Growth inhibition of human RXF393 cells assessed as cell growth at 10 uM by sulforhodamine B assay; conditions: read-out: Activity
# ACHN [18] = test: Growth inhibition of human ACHN cells assessed as cell growth at 10 uM by sulforhodamine B assay; conditions: read-out: Activity
# 786-0 [19] = test: Growth inhibition of human 786-0 cells assessed as cell growth at 10 uM by sulforhodamine B assay; conditions: read-out: Activity
# OVCAR-3 [20] = test: Growth inhibition of human OVCAR3 cells assessed as cell growth at 10 uM by sulforhodamine B assay; conditions: read-out: Activity
# IGROV-1 [21] = test: Growth inhibition of human IGROV1 cells assessed as cell growth at 10 uM by sulforhodamine B assay; conditions: read-out: Activity
# SK-MEL-5 [22] = test: Growth inhibition of human SK-MEL-5 cells assessed as cell growth at 10 uM by sulforhodamine B assay; conditions: read-out: Activity
# MDA-MB-435 = test: Growth inhibition of human MDA-MB-435 cells assessed as cell growth at 10 uM by sulforhodamine B assay; conditions: read-out: Activity
# LOX IMVI = test: Growth inhibition of human LOXIMVI cells assessed as cell growth at 10 uM by sulforhodamine B assay; conditions: read-out: Activity
# SNB-19 = test: Growth inhibition of human SNB19 cells assessed as cell growth at 10 uM by sulforhodamine B assay; conditions: read-out: Activity
# SF-539 [23] = test: Growth inhibition of human SF539 cells assessed as cell growth at 10 uM by sulforhodamine B assay; conditions: read-out: Activity
# SF-295 = test: Growth inhibition of human SF295 cells assessed as cell growth at 10 uM by sulforhodamine B assay; conditions: read-out: Activity
# SF-268 = test: Growth inhibition of human SF268 cells assessed as cell growth at 10 uM by sulforhodamine B assay; conditions: read-out: Activity
# KM12 [24] = test: Growth inhibition of human KM12 cells assessed as cell growth at 10 uM by sulforhodamine B assay; conditions: read-out: Activity
# HT-29 = test: Growth inhibition of human HT-29 cells assessed as cell growth at 10 uM by sulforhodamine B assay; conditions: read-out: Activity
# [25] = Growth inhibition of human HCC2998 cells assessed as cell growth at 10 uM by sulforhodamine B assay; conditions: HCC 2998, read-out: Activity
# COLO 205 [26] = test: Growth inhibition of human COLO205 cells assessed as cell growth at 10 uM by sulforhodamine B assay; conditions: read-out: Activity
# NCI-H460 [27] = test: Growth inhibition of human NCI-H460 cells assessed as cell growth at 10 uM by sulforhodamine B assay; conditions: read-out: Activity
# NCI-H23 = test: Growth inhibition of human NCI-H23 cells assessed as cell growth at 10 uM by sulforhodamine B assay; conditions: read-out: Activity
# [28] = Growth inhibition of human EKVX cells assessed as cell growth at 10 uM by sulforhodamine B assay; conditions: read-out: Activity
# SR = test: Growth inhibition of human SR cells assessed as cell growth at 10 uM by sulforhodamine B assay; conditions: read-out: Activity
structure (smiles),measurement,setting,value
C/C=C(/C)C(=O)O[C@@H]1CC(C)(C)C[C@H]2C3=CC[C@@H]4[C@@]5(C)CC[C@H](O)C(C)(C)[C@@H]5CC[C@@]4(C)[C@]3(C)CC[C@@]12C(=O)O [Reduced Lantadene A],inhibition of growth at 10 µM,BT-549 [1],73.9%
same,inhibition of growth at 10 µM,MDA-MB-231 [2],77.8%
same,inhibition of growth at 10 µM,MCF7,39%
same,inhibition of growth at 10 µM,DU-145,25.1%
same,growth inhibition (GI),UO-31 [3],Active
same,inhibition of growth at 10 µM,SN12C,94.2%
same,inhibition of growth at 10 µM,ACHN [4],91.9%
same,growth inhibition (GI),786-0 [5],Active
same,inhibition of growth at 10 µM,[6],30.2%
same,growth at 10 µM,CCRF-CEM,45.8%
same,inhibition of growth at 10 µM,OVCAR-5,36%
same,inhibition of growth at 10 µM,OVCAR-3 [7],68%
same,inhibition of growth at 10 µM,IGROV-1 [8],64.9%
same,growth inhibition (GI),UACC-62,Active
same,inhibition of growth at 10 µM,SK-MEL-5 [9],46.8%
same,inhibition of growth at 10 µM,SK-MEL-2,45.9%
same,inhibition of growth at 10 µM,SF-539 [10],57%
same,inhibition of growth at 10 µM,SW-620,60.9%
same,inhibition of growth at 10 µM,KM12 [11],78.3%
same,inhibition of growth at 10 µM,HCT-116,80%
same,inhibition of growth at 10 µM,COLO 205 [12],71.8%
same,inhibition of growth at 10 µM,NCI-H460 [13],64.9%
same,inhibition of growth at 10 µM,[14],63.5%
same,growth inhibition (GI),HL-60(TB),Active
same,growth at 10 µM,MDA-MB-468,66.1%
same,growth at 10 µM,T47D,75.7%
same,growth at 10 µM,BT-549 [15],26.1%
same,growth at 10 µM,MDA-MB-231 [16],22.2%
same,growth at 10 µM,UO-31 [17],-26%
same,growth at 10 µM,RXF 393,22.8%
same,growth at 10 µM,ACHN [18],8.12%
same,growth at 10 µM,786-0 [19],-42.9%
same,growth at 10 µM,OVCAR-3 [20],32%
same,growth at 10 µM,IGROV-1 [21],35.1%
same,growth at 10 µM,SK-MEL-5 [22],53.2%
same,growth at 10 µM,MDA-MB-435,64.9%
same,growth at 10 µM,LOX IMVI,42.7%
same,growth at 10 µM,SNB-19,-53%
same,growth at 10 µM,SF-539 [23],43%
same,growth at 10 µM,SF-295,-14.4%
same,growth at 10 µM,SF-268,25.9%
same,growth at 10 µM,KM12 [24],21.7%
same,growth at 10 µM,HT-29,55.8%
same,growth at 10 µM,[25],26.4%
same,growth at 10 µM,COLO 205 [26],28.2%
same,growth at 10 µM,NCI-H460 [27],35.1%
same,growth at 10 µM,NCI-H23,64.7%
same,growth at 10 µM,[28],36.5%
same,growth at 10 µM,SR,61.9%
